US7504362B2, “Pesticidal compositions” (Merial Limited, priority 2002, dated 2009)

Test system: Ctenocephalides felis, Diabrotica undecimpunctata, Nephotettix cincticeps or Rhipicephalus sanguineus
Assay: Pooled statement: active in one or more of the above tests (Methods A to E)
Format: in vivo
Conditions: active = reaching the threshold of Method A, B, C, D or E; test not given per compound
Experimental: The following representative test procedures, using compounds of the invention, were conducted to determine the parasiticidal and pesticidal activity of compounds of the invention.
A test container was filled with 10 adults of Ctenocephalides felis. A glass cylinder was closed on one end with parafilm and placed on top of the test container. The test compound solution was then pipetted into bovine blood and added to the glass cylinder. The treated Ctenocephalides felis were held in this artificial dog test (blood 37° C., 40-60% relative humidity; Ctenocephalides felis 20-22° C., 40-60% relative humidity) and assessment performed at 24 and 48 hours after application. Active compounds gave at least 90% control of Ctenocephalides felis at a test concentration of 5 ppm or less.
Two days before application, seeds of maize were soaked in water under warm conditions to elicit fast germination. One day before application, eggs of Diabrotica undecimpunctata were transferred to one half of a Japanese filter paper placed in a plastic petri dish. Afterwards, a sprouted maize seed was placed on a moistened pad beside the filter paper. Three drops of 200 microliters of test compound solution were carefully pipetted onto the egg. The remainder of the solution was placed on the maize and then the Petri dish was closed. The treated eggs in the Petri dishes were held in a climate chamber for 6 days. The compound efficacy (percentage of dead eggs and/or larvae in comparison to untreated control) was assessed 6 days after application using a binocular microscope.
Active compounds gave at least 90% control of Diabrotica undecimpunctata at a test concentration of 10 ppm.
The leaves of 12 rice plants having a stem length of 8 cm were dipped for 5 seconds into an aqueous solution of the formulated test compound. After the solution had run off, the rice plants treated in this manner were placed in a Petri dish and populated with about 20 larvae (L3 stage) of Nephotettix cincticeps. The Petri dish was closed and then stored in a climate chamber (16 hours of light/day, 25° C., 40-60% relative humidity). After 6 days storage, the percentage mortality of leafhopper larvae was determined.
Active compounds gave at least 98% mortality of Nephotettix cinciceps larvae at a test concentration of 100 ppm.
Solutions of the test compounds were dropped onto filter paper, dried and the filter paper placed into test tubes and infested with 10 adults of Ctenocephalides felis. The treated Ctenocephalides felis were held in a climate chamber (26° C., 80% RH) and the percentage efficacy assessed 24 hours and 48 hours after application in comparison with the untreated control.
Active compounds gave at least 70% contact control of Ctenocephalides felis at a test concentration of 1000 ppm.
Solutions of the test compounds were dropped onto filter paper, dried and the filter paper placed into test tubes and infested with 20-30 larvae (L1) of Rhipicephalus sanguineus and the tubes closed with a clip. The treated Rhipicephalus sanguineus were held in a climate chamber (25° C., 90% RH) and the percentage efficacy assessed 24 hours after application in comparison with the untreated control. Active compounds gave at least 70% contact control of Rhipicephalus sanguineus at a test concentration of 100 ppm.

Compound | active in one or more of the above tests
CN(c1c([S+]([O-])C(F)(F)F)c(C#N)nn1-c1c(Cl)cc(C(F)(F)F)cc1Cl)S(=O)(=O)Cc1cc(C(F)(F)F)cc(C(F)(F)F)c1 (stereo not drawn) [Compound 2-94] | active
Cc1ccc(CS(=O)(=O)N(C)c2c([S+]([O-])C(F)(F)F)c(C#N)nn2-c2c(Cl)cc(C(F)(F)F)cc2Cl)cc1 (stereo not drawn) [Compound 2-109] | active
CN(c1c(S(=O)(=O)C(F)(F)F)c(C#N)nn1-c1c(Cl)cc(C(F)(F)F)cc1Cl)S(=O)(=O)Cc1ccc(Cl)cc1 [Compound 2-115] | active
CN(c1c(S(=O)(=O)C(F)(F)F)c(C#N)nn1-c1c(Cl)cc(C(F)(F)F)cc1Cl)S(=O)(=O)Cc1ccc(F)cc1 [Compound 2-121] | active
CN(c1c(S(=O)(=O)C(F)(F)F)c(C#N)nn1-c1c(Cl)cc(C(F)(F)F)cc1Cl)S(=O)(=O)Cc1cccc(C(F)(F)F)c1 [Compound 2-127] | active
CN(c1c(S(=O)(=O)C(F)(F)F)c(C#N)nn1-c1c(Cl)cc(C(F)(F)F)cc1Cl)S(=O)(=O)Cc1ccc(C(F)(F)F)cc1 [Compound 2-128] | active
CN(c1c(S(=O)(=O)C(F)(F)F)c(C#N)nn1-c1c(Cl)cc(C(F)(F)F)cc1Cl)S(=O)(=O)Cc1cc(C(F)(F)F)cc(C(F)(F)F)c1 [Compound 2-129] | active
Cc1ccc(CS(=O)(=O)N(C)c2c(S(=O)(=O)C(F)(F)F)c(C#N)nn2-c2c(Cl)cc(C(F)(F)F)cc2Cl)cc1 [Compound 2-144] | active
CCCCCc1ccc(CS(=O)(=O)N(C)c2c(SC(F)(F)F)c(C#N)nn2-c2c(Cl)cc(C(F)(F)F)cc2Cl)cc1 [Compound 2-148] | active
CN(c1c(SC(F)(F)F)c(C#N)nn1-c1c(Cl)cc(C(F)(F)F)cc1Cl)S(=O)(=O)Cc1cc(Cl)cc(Cl)c1 [Compound 2-149] | active
CN(c1c([S+]([O-])C(F)(F)F)c(C#N)nn1-c1c(Cl)cc(C(F)(F)F)cc1Cl)S(=O)(=O)Cc1cc(Cl)cc(Cl)c1 (stereo not drawn) [Compound 2-150] | active
CN(c1c(S(=O)(=O)C(F)(F)F)c(C#N)nn1-c1c(Cl)cc(C(F)(F)F)cc1Cl)S(=O)(=O)Cc1cc(Cl)cc(Cl)c1 [Compound 2-151] | active
CN(c1c(SC(F)(F)F)c(C#N)nn1-c1c(Cl)cc(C(F)(F)F)cc1Cl)S(=O)(=O)Cc1ccc(Cl)s1 [Compound 4-32] | active
CN(c1c(SC(F)(F)F)c(C#N)nn1-c1c(Cl)cc(C(F)(F)F)cc1Cl)S(=O)(=O)Cc1cccs1 [Compound 4-33] | active
CN(c1c(S(=O)(=O)C(F)(F)F)c(C#N)nn1-c1c(Cl)cc(C(F)(F)F)cc1Cl)S(=O)(=O)Cc1cccs1 [Compound 4-34] | active
CN(c1c([S+]([O-])C(F)(F)F)c(C#N)nn1-c1c(Cl)cc(C(F)(F)F)cc1Cl)S(=O)(=O)Cc1ccc(Cl)s1 (stereo not drawn) [Compound 4-35] | active
CN(c1c(SC(F)(F)F)c(C#N)nn1-c1c(Cl)cc(C(F)(F)F)cc1Cl)S(=O)(=O)c1ccccc1Cl [Compound 5-1] | active
CN(c1c(SC(F)(F)F)c(C#N)nn1-c1c(Cl)cc(C(F)(F)F)cc1Cl)S(=O)(=O)c1ccc(F)cc1 [Compound 5-9] | active
CN(c1c(SC(F)(F)F)c(C#N)nn1-c1c(Cl)cc(C(F)(F)F)cc1Cl)S(=O)(=O)c1cccc(C(F)(F)F)c1 [Compound 5-15] | active
CN(c1c(SC(F)(F)F)c(C#N)nn1-c1c(Cl)cc(C(F)(F)F)cc1Cl)S(=O)(=O)c1ccc(C(F)(F)F)cc1 [Compound 5-16] | active

Compound | active in one or more of the above tests
COc1ccc(S(=O)(=O)N(C)c2c(SC(F)(F)F)c(C#N)nn2-c2c(Cl)cc(C(F)(F)F)cc2Cl)cc1 [Compound 5-22] | active
Cc1cccc(S(=O)(=O)N(C)c2c(SC(F)(F)F)c(C#N)nn2-c2c(Cl)cc(C(F)(F)F)cc2Cl)c1 [Compound 5-30] | active
Cc1ccc(S(=O)(=O)N(C)c2c(SC(F)(F)F)c(C#N)nn2-c2c(Cl)cc(C(F)(F)F)cc2Cl)cc1 [Compound 5-32] | active
CN(c1c(SC(F)(F)F)c(C#N)nn1-c1c(Cl)cc(C(F)(F)F)cc1Cl)S(=O)(=O)c1ccccc1 [Compound 5-36] | active
CN(c1c(SC(F)(F)F)c(C#N)nn1-c1c(Cl)cc(C(F)(F)F)cc1Cl)S(=O)(=O)c1ccc(C(C)(C)C)cc1 [Compound 5-38] | active
Cc1cc(C)c(S(=O)(=O)N(C)c2c(SC(F)(F)F)c(C#N)nn2-c2c(Cl)cc(C(F)(F)F)cc2Cl)c(C)c1 [Compound 5-40] | active
CN(c1c(SC(F)(F)F)c(C#N)nn1-c1c(Cl)cc(C(F)(F)F)cc1Cl)S(=O)(=O)c1cc(Cl)cc(Cl)c1 [Compound 5-42] | active
CN(c1c([S+]([O-])C(F)(F)F)c(C#N)nn1-c1c(Cl)cc(C(F)(F)F)cc1Cl)S(=O)(=O)c1ccccc1Cl (stereo not drawn) [Compound 5-46] | active
CN(c1c([S+]([O-])C(F)(F)F)c(C#N)nn1-c1c(Cl)cc(C(F)(F)F)cc1Cl)S(=O)(=O)c1cccc(Cl)c1 (stereo not drawn) [Compound 5-47] | active
CN(c1c([S+]([O-])C(F)(F)F)c(C#N)nn1-c1c(Cl)cc(C(F)(F)F)cc1Cl)S(=O)(=O)c1ccc(Cl)cc1 (stereo not drawn) [Compound 5-48] | active
CN(c1c([S+]([O-])C(F)(F)F)c(C#N)nn1-c1c(Cl)cc(C(F)(F)F)cc1Cl)S(=O)(=O)c1ccc(F)cc1 (stereo not drawn) [Compound 5-54] | active
CN(c1c([S+]([O-])C(F)(F)F)c(C#N)nn1-c1c(Cl)cc(C(F)(F)F)cc1Cl)S(=O)(=O)c1cccc(C(F)(F)F)c1 (stereo not drawn) [Compound 5-60] | active
CN(c1c([S+]([O-])C(F)(F)F)c(C#N)nn1-c1c(Cl)cc(C(F)(F)F)cc1Cl)S(=O)(=O)c1ccc(C(F)(F)F)cc1 (stereo not drawn) [Compound 5-61] | active
Cc1cccc(S(=O)(=O)N(C)c2c([S+]([O-])C(F)(F)F)c(C#N)nn2-c2c(Cl)cc(C(F)(F)F)cc2Cl)c1 (stereo not drawn) [Compound 5-75] | active
Cc1ccc(S(=O)(=O)N(C)c2c([S+]([O-])C(F)(F)F)c(C#N)nn2-c2c(Cl)cc(C(F)(F)F)cc2Cl)cc1 (stereo not drawn) [Compound 5-77] | active
CN(c1c([S+]([O-])C(F)(F)F)c(C#N)nn1-c1c(Cl)cc(C(F)(F)F)cc1Cl)S(=O)(=O)c1ccccc1 (stereo not drawn) [Compound 5-81] | active
CN(c1c([S+]([O-])C(F)(F)F)c(C#N)nn1-c1c(Cl)cc(C(F)(F)F)cc1Cl)S(=O)(=O)c1ccc(C(C)(C)C)cc1 (stereo not drawn) [Compound 5-83] | active
COC(=O)c1ccc(I)cc1S(=O)(=O)N(C)c1c([S+]([O-])C(F)(F)F)c(C#N)nn1-c1c(Cl)cc(C(F)(F)F)cc1Cl (stereo not drawn) [Compound 5-86] | active
CN(c1c([S+]([O-])C(F)(F)F)c(C#N)nn1-c1c(Cl)cc(C(F)(F)F)cc1Cl)S(=O)(=O)c1cc(Cl)cc(Cl)c1 (stereo not drawn) [Compound 5-87] | active
